Results on 5 compounds are retold here after patent JP2005330229A, “4−トリフルオロメトキシフェニル(オキシ)エチルアミン誘導体及び抗菌剤” (Ube Industries Ltd, priority 2004, dated 2005).

In this assay the test system is black mold Aspergillus niger (クロカビ). As to the kind of experiment: Antimicrobial test, black mold (PDA plate, colony diameter). In kind it is cell-based. Particulars: PDA medium, final concentration 500 mg/L, 25℃, 4 days; for inhibition at 500 µg/mL: 96 h, read-out: inhibition rate.

Consider `CS(=O)(=O)c1ncccc1C(=O)NCCOc1ccc(OC(F)(F)F)cc1` [化合物番号4, 2−メチルスルホニル−N−(2−(4−トリフルオロメトキシフェノキシ)エチル)ニコチン酸アミド], for which the inhibition at 500 µg/mL lay within 70 to 89%. Still for that read-out and setting: to `C[S+]([O-])c1ncccc1C(=O)NCCOc1ccc(OC(F)(F)F)cc1` (centres unmarked) [化合物番号5, 2−メチルスルフィニル−N−(2−(4−トリフルオロメトキシフェノキシ)エチル)ニコチン酸アミド] belongs 50 to 69%. “2−エトキシ−N−(2−(4−トリフルオロメトキシフェノキシ)エチル)ニコチン酸アミド [化合物番号12]”: the inhibition rate result was “B (B:70〜89%阻害)”. Same read-out and setting: to “N−(2−(4−トリフルオロメトキシフェノキシ)エチル)−9−トリフルオロメチル−ジピリド[2,3−b:3’,2’−f]1,4−チアゼピン−6(5H)−オン [化合物番号41]” belongs “C (C:50〜69%阻害)”. `O=C(NCCc1ccc(OC(F)(F)F)cc1)c1ccncc1` [化合物番号33, N−(2−(4−トリフルオロメトキシフェニル)エチル)イソニコチン酸アミド]: the inhibition at 500 µg/mL lay within 70 to 89%.
